Reference: article PMC3726442 (PLoS ONE, 2013)

Key:
[1] = tested on: CYP3A4/5; set-up: method as in PMID 19088019; settings: major primary metabolite, CYP3A4/5-mediated; cited from earlier work
[2] = Plasma concentrations of tamoxifen and its metabolites in breast cancer patients on tamoxifen, by HPLC-tandem mass spectrometry
[3] = all samples analyzed, n = 125, before daily 20 mg TAM dose

CC/C(=C(\c1ccccc1)c1ccc(OCCNC)cc1)c1ccccc1 [N-desmethyl-tamoxifen]
share of primary TAM oxidation [1]: 90% | mean plasma concentration (±SD) [2, 3]: 450.54 ± 188.79 ng/mL | median plasma concentration [2, 3]: 418.46 ng/mL | mean concentration relative to the TAM concentration ([2]; all samples, n = 125): over 2 times | plasma concentration, mean ±SD ([2]; genotype SULT1A1 *2/*2, n = 15): 459.42 ± 160.94 ng/mL | plasma concentration, median ([2]; genotype SULT1A1 *2/*2, n = 15): 432.49 ng/mL | plasma concentration, range ([2]; genotype SULT1A1 *2/*2, n = 15): (212.67–782.92) ng/mL | plasma concentration, mean ±SD ([2]; genotype SULT1A1 wt/*2, n = 46): 441.63 ± 176.28 ng/mL | plasma concentration, median ([2]; genotype SULT1A1 wt/*2, n = 46): 418.46 ng/mL | plasma concentration, range ([2]; genotype SULT1A1 wt/*2, n = 46): (196.74–1191.13) ng/mL | plasma concentration, mean ±SD ([2]; genotype SULT1A1 wt/wt, n = 60): 458.09 ± 209.96 ng/mL | plasma concentration, median ([2]; genotype SULT1A1 wt/wt, n = 60): 411.53 ng/mL | plasma concentration, range ([2]; genotype SULT1A1 wt/wt, n = 60): (35.96–1210.09) ng/mL | plasma concentration, mean ±SD ([2]; genotype SULT1A2 *2/*2, n = 16): 453.17 ± 128.87 ng/mL | plasma concentration, median ([2]; genotype SULT1A2 *2/*2, n = 16): 427.03 ng/mL | plasma concentration, range ([2]; genotype SULT1A2 *2/*2, n = 16): (238.36–782.92) ng/mL | plasma concentration, mean ±SD ([2]; genotype SULT1A2 *2/*3, n = 13): 478.66 ± 162.35 ng/mL | plasma concentration, median ([2]; genotype SULT1A2 *2/*3, n = 13): 527.52 ng/mL | plasma concentration, range ([2]; genotype SULT1A2 *2/*3, n = 13): (228.81–676.02) ng/mL | plasma concentration, mean ±SD ([2]; genotype SULT1A2 *3/*3, n = 5): 478.49 ± 198.83 ng/mL | plasma concentration, median ([2]; genotype SULT1A2 *3/*3, n = 5): 485.02 ng/mL | plasma concentration, range ([2]; genotype SULT1A2 *3/*3, n = 5): (242.88–768.62) ng/mL | plasma concentration, mean ±SD ([2]; genotype SULT1A2 wt/*2, n = 33): 478.01 ± 247.44 ng/mL | plasma concentration, median ([2]; genotype SULT1A2 wt/*2, n = 33): 399.40 ng/mL | plasma concentration, range ([2]; genotype SULT1A2 wt/*2, n = 33): (212.67–1210.09) ng/mL | plasma concentration, mean ±SD ([2]; genotype SULT1A2 wt/*3, n = 16): 425.36 ± 207.64 ng/mL | plasma concentration, median ([2]; genotype SULT1A2 wt/*3, n = 16): 324.21 ng/mL | plasma concentration, range ([2]; genotype SULT1A2 wt/*3, n = 16): (167.40–952.85) ng/mL | plasma concentration, mean ±SD ([2]; genotype SULT1A2 wt/wt, n = 38): 428.02 ± 162.17 ng/mL | plasma concentration, median ([2]; genotype SULT1A2 wt/wt, n = 38): 413.16 ng/mL | plasma concentration, range ([2]; genotype SULT1A2 wt/wt, n = 38): (35.96–847.98) ng/mL | plasma concentration, mean ±SD ([2]; genotype SULT1E1 *2/*2, n = 5): 455.57 ± 104.52 ng/mL | plasma concentration, median ([2]; genotype SULT1E1 *2/*2, n = 5): 497.51 ng/mL | plasma concentration, range ([2]; genotype SULT1E1 *2/*2, n = 5): (311.12–550.12) ng/mL | plasma concentration, mean ±SD ([2]; genotype SULT1E1 wt/*2, n = 28): 462.59 ± 167.53 ng/mL | plasma concentration, median ([2]; genotype SULT1E1 wt/*2, n = 28): 426.41 ng/mL | plasma concentration, range ([2]; genotype SULT1E1 wt/*2, n = 28): (196.74–768.62) ng/mL | plasma concentration, mean ±SD ([2]; genotype SULT1E1 wt/wt, n = 88): 448.30 ± 202.82 ng/mL | plasma concentration, median ([2]; genotype SULT1E1 wt/wt, n = 88): 399.40 ng/mL
